In patent publication US20250034136A1 (Nimbus Wadjet, Inc., priority 2023, published 2025):
Values belong to the compound of their own block, whether it stands above or below them.

Columns and labels:
[1] = system: p21 induction in HCT116 cells; assay: p21 induction in HCT116 cells; type: cell-based; settings: Homo sapiens, HCT-116, 24 h, HCT116 cells, 24 h compound incubation; read-out: P21_EC50
Method in brief: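 HCT116 cells, 2,000/well, treated 24 h at 37 °C with 11-point compound dilutions in duplicate. Fixed, then immunostained for p21 and GAPDH and read by near-IR imaging at 800/700 nm. Normalized to DMSO (low) and reference WRN inhibitor (high) controls; EC50 from non-linear regression.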

[2] = target: WRN (BV08), human Werner helicase (Uniprot Q14191, amino acids 517-1235 with L1074F point mutation) (Homo sapiens (Human), UniProt Q14191, L1074F); assay: WRN (BV08) ADP-Glo assay; type: biochemical; settings: class symbols A-E, read-out: ADP-Glo_hWRN_IC50
WRN (BV08), human Werner helicase (Uniprot Q14191, amino acids 517-1235 with L1074F point mutation), sequence (Q14191 other isoform, or with tags, fused parts or gaps L1074F (already in the parent)): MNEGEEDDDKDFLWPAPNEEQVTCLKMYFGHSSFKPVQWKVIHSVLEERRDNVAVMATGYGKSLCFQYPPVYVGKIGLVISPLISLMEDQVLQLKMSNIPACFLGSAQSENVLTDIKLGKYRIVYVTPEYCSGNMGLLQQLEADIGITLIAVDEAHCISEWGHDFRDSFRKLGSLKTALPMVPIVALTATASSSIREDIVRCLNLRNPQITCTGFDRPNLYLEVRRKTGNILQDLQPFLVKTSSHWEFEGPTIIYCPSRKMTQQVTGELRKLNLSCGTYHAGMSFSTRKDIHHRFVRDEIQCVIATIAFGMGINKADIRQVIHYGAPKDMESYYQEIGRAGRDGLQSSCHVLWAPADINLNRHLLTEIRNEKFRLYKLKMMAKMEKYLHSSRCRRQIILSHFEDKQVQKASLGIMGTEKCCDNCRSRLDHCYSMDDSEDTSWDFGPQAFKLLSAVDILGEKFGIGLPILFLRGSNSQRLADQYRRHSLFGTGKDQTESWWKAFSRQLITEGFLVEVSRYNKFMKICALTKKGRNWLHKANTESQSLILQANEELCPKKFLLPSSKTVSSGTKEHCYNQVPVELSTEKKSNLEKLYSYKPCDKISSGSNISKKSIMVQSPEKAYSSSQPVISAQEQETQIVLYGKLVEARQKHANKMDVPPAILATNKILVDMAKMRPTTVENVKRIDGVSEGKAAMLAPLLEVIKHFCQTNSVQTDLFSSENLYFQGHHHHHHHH

EC50 [1]: > 5000 nM
IC50 [2]: 50 to 100 nM
Compound: CCc1c(N2CCN(C(=O)c3ncnc(C)c3O)CC2)c(=O)c2nc(C(N)=O)cnc2n1CC(=O)Nc1ccc(C(F)(F)F)cc1Cl [I-50, 5-(2-((2-chloro-4-(trifluoromethyl)phenyl)amino)-2-oxoethyl)-6-ethyl-7-(4-(5-hydroxy-6-methylpyrimidine-4-carbonyl)piperazin-1-yl)-8-oxo-5,8-dihydropyrido[2,3-b]pyrazine-2-carboxamide]

EC50 [1]: 500 to 2000 nM
IC50 [2]: 5 to 50 nM
Compound: CCc1c(N2CCN(C(=O)c3ncnc(C)c3O)CC2)c(=O)c2nc(N3CCC3)cnc2n1CC(=O)Nc1ccc(C(F)(F)F)cc1Cl [I-53, 2-(2-(azetidin-1-yl)-6-ethyl-7-(4-(5-hydroxy-6-methylpyrimidine-4-carbonyl)piperazin-1-yl)-8-oxopyrido[2,3-b]pyrazin-5(8H)-yl)-N-(2-chloro-4-(trifluoromethyl)phenyl)acetamide]

EC50 [1]: 500 to 2000 nM
IC50 [2]: 5 to 50 nM
Compound: CCc1c(N2CCN(C(=O)c3ncnc(C)c3O)[C@H](C)C2)c(=O)c2nc(N(C)C)cnc2n1CC(=O)Nc1ccc(C(F)(F)F)cc1Cl [I-57, (R)-N-(2-chloro-4-(trifluoromethyl)phenyl)-2-(2-(dimethylamino)-6-ethyl-7-(4-(5-hydroxy-6-methylpyrimidine-4-carbonyl)-3-methylpiperazin-1-yl)-8-oxopyrido[2,3-b]pyrazin-5(8H)-yl)acetamide]

The next lines start with the compound.

Compound: CCc1c(N2CCN(C(=O)c3c(O)ccnc3OC)CC2)c(=O)c2nc(N(C)C)cnc2n1CC(=O)Nc1ccc(C(F)(F)F)cc1Cl [I-51, N-(2-chloro-4-(trifluoromethyl)phenyl)-2-(2-(dimethylamino)-6-ethyl-7-(4-(4-hydroxy-2-methoxynicotinoyl)piperazin-1-yl)-8-oxopyrido[2,3-b]pyrazin-5(8H)-yl)acetamide]
EC50 [1]: < 500 nM
IC50 [2]: 5 to 50 nM

Compound: CCc1c(N2CCN(C(=O)c3ncnc(C)c3O)CC2)c(=O)c2nc(N3CCOCC3)cnc2n1CC(=O)Nc1ccc(C(F)(F)F)cc1Cl [I-52, N-(2-chloro-4-(trifluoromethyl)phenyl)-2-(6-ethyl-7-(4-(5-hydroxy-6-methylpyrimidine-4-carbonyl)piperazin-1-yl)-2-morpholino-8-oxopyrido[2,3-b]pyrazin-5(8H)-yl)acetamide]
EC50 [1]: > 5000 nM
IC50 [2]: 5 to 50 nM

Compound: CCc1c(N2CCN(C(=O)c3ncnc(C)c3O)CC2)c(=O)c2nc(C(=O)NC)cnc2n1CC(=O)Nc1ccc(C(F)(F)F)cc1Cl [I-54, 5-(2-((2-chloro-4-(trifluoromethyl)phenyl)amino)-2-oxoethyl)-6-ethyl-7-(4-(5-hydroxy-6-methylpyrimidine-4-carbonyl)piperazin-1-yl)-N-methyl-8-oxo-5,8-dihydropyrido[2,3-b]pyrazine-2-carboxamide]
EC50 [1]: > 5000 nM
IC50 [2]: 100 to 500 nM

Compound: CCc1c(N2CCN(C(=O)c3ncnc(C)c3O)CC2)c(=O)c2nc(/C=C/COC)cnc2n1CC(=O)Nc1ccc(C(F)(F)F)cc1Cl [I-55, (E)-N-(2-chloro-4-(trifluoromethyl)phenyl)-2-(6-ethyl-7-(4-(5-hydroxy-6-methylpyrimidine-4-carbonyl)piperazin-1-yl)-2-(3-methoxyprop-1-en-1-yl)-8-oxopyrido[2,3-b]pyrazin-5(8H)-yl)acetamide]
EC50 [1]: 500 to 2000 nM
IC50 [2]: 5 to 50 nM

Compound: CCc1c(N2CCN(C(=O)c3ncnc(C)c3O)CC2)c(=O)c2nc(N3CC[C@@H](O)C3)cnc2n1CC(=O)Nc1ccc(C(F)(F)F)cc1Cl [I-56, (R)-N-(2-chloro-4-(trifluoromethyl)phenyl)-2-(6-ethyl-7-(4-(5-hydroxy-6-methylpyrimidine-4-carbonyl)piperazin-1-yl)-2-(3-hydroxypyrrolidin-1-yl)-8-oxopyrido[2,3-b]pyrazin-5(8H)-yl)acetamide]
EC50 [1]: > 5000 nM
IC50 [2]: 5 to 50 nM
